The nature of data set [1]: acute toxicity in mice, intraperitoneal (Miller and Tainter). The following applies: mouse, in vivo, ip, read-out: Acute toxicity (mice) LD 50. The source says: The acute toxicity was studied in mice intraperitoneally and the lethal doses estimated according to the method described by Miller and Tainter in Proc. Soc. Exper.
For data set [2], the system named is apomorphine straightening. Description: test of antagonism to apomorphine straightening in mice, intraperitoneal (Gouret). In kind it is in vivo. The following applies: Mus musculus, ip, read-out: Apomorphine straightening ED 50.

Regarding `CCN(CC)CCNC(=O)c1cnc(N)nc1OC` [76.0745], the LD50 in data set [1] is 650 mg/kg. Besides, the ED50 in data set [2] was determined as 30 mg/kg.
The corresponding values for `CCN1CCCC1CNC(=O)c1cnc(N)nc1OC` (centres unmarked) [76.0843] are 300 mg/kg and 6 mg/kg.
The like results for `COc1ccccc1N1CCN(CCNC(=O)c2cnc(N)nc2OC)CC1` [76.0994] were, in that order, 150 mg/kg and 3 mg/kg.
The like results for `COc1nc(N)ncc1C(=O)NC1CCN(Cc2ccccc2)CC1` [77.0208] were, in that order, 500 mg/kg and 3.5 mg/kg.
Take `CCN(CCNC(=O)c1cnc(N)nc1OC)Cc1ccccc1` [77.0489]: the LD50 in data set [1] amounted to 330 mg/kg. Also, in data set [2], the ED50 amounted to 3 mg/kg.
The corresponding values for `CCOc1nc(N)ncc1C(=O)NCCN(CC)CC` [77.0508] are 300 mg/kg and 30 mg/kg.
The corresponding values for `COc1nc(N)ncc1C(=O)NCCN(C)Cc1ccccc1` [77.0512, 1-[5-(2-amino 4-methoxypyrimidinyl)carboxamido] 2-[N-methyl N-benzylamino] ethane] are 400 mg/kg and 10 mg/kg.
In the case of `CCOc1nc(N)ncc1C(=O)NCC1CCCN1CC` (centres unmarked) [77.0540], the LD50 in data set [1] amounted to 150 mg/kg. In addition, the ED50 in data set [2] came out at 3 mg/kg.
The corresponding values for `COc1nc(N)ncc1C(=O)NCCNc1ccccc1` [77.0580] are 400 mg/kg and 30 mg/kg.
As to `CCCOc1nc(N)ncc1C(=O)NCC1CCCN1CC` (centres unmarked) [77.0621], the LD50 in data set [1] is 150 mg/kg. Moreover, in data set [2], the ED50 amounted to 15 mg/kg.
The like results for `CCN(CC)CCNC(=O)c1cnc(C)nc1OC` [77.0766] were, in that order, 300 mg/kg and 12 mg/kg.
The corresponding values for `CCN1CCCC1CNC(=O)c1cnc(C)nc1OC` (centres unmarked) [77.0805] are 200 mg/kg and 7 mg/kg.
The like results for `CCN(CC)CCNC(=O)c1cnc(SC)nc1OC` [77.0806] were, in that order, 150 mg/kg and 30 mg/kg.
On to `CCN1CCCC1CNC(=O)c1cncnc1OC` (centres unmarked) [77.0807], for which the LD50 in data set [1] stood at 300 mg/kg. Moreover, the ED50 in data set [2] was found to be 18.5 mg/kg.
The corresponding values for `CCN1CCCC1CNC(=O)c1cnc(SC)nc1OC` (centres unmarked) [77.0840] are 95 mg/kg and 10 mg/kg.
The like results for `COc1nc(N)ncc1C(=O)NCCN1CCc2ccccc2C1` [77.0862, 1-[5-(2-amino 4-methoxypyrimidinyl)carboxamido] 2-[(tetrahydro 1,2,3,4)isoquinolin-2-yl] ethane] were, in that order, 300 mg/kg and 30 mg/kg.
The corresponding values for `CCN1CCCC1CNC(=O)c1cnc(N)nc1OC(C)C` (centres unmarked) [77.0871] are 170 mg/kg and 30 mg/kg.
Turning to `CC(C)Oc1nc(N)ncc1C(=O)NC1CCN(Cc2ccccc2)CC1` [77.0872], in data set [1], the LD50 was found to be 115 mg/kg. In addition, the ED50 in data set [2] came to 11 mg/kg.
The corresponding values for `COc1nc(C)ncc1C(=O)NC1CCN(Cc2ccccc2)CC1` [77.0878] are 150 mg/kg and 10 mg/kg.
The like results for `COc1nc(N)ncc1C(=O)NCC1CCCN1Cc1ccccc1` (centres unmarked) [77.0880] were, in that order, 180 mg/kg and 9 mg/kg.
The like results for `COc1ncncc1C(=O)NC1CCN(Cc2ccccc2)CC1` [77.0886] were, in that order, 125 mg/kg and 17.5 mg/kg.
As for `COc1nc(N)ncc1C(=O)NC1CCN(Cc2ccccc2)C1` (centres unmarked) [77.0958], the LD50 in data set [1] turned out to be 150 mg/kg. The ED50 in data set [2] was determined as 1.5 mg/kg.
With `COc1nc(N)ncc1C(=O)NC1CCN(C2CCCCC2)C1` (centres unmarked) [77.1006], in data set [1], the LD50 came to 175 mg/kg. Moreover, the ED50 in data set [2] is 3 mg/kg.
The corresponding values for `COc1nc(N(C)C)ncc1C(=O)NC1CCN(Cc2ccccc2)CC1` [77.1011] are 25 mg/kg and 2.7 mg/kg.
The corresponding values for `CCCCN1CCCC1CNC(=O)c1cnc(N)nc1OC` (centres unmarked) [77.1012] are 110 mg/kg and 7 mg/kg.
The corresponding values for `COc1nc(N)ncc1C(=O)N1CC1` [77.1017] are 300 mg/kg and 15 mg/kg.
Take `CCN1CCCC1CNC(=O)c1cc(S(N)(=O)=O)ccc1OC` (centres unmarked) [SULPIRIDE, Sulpiride, reference compound]: the ED50 in data set [2] was 37 mg/kg.

For the origin of these results see US4250178A, “Amides derived from carboxyl-5 pyrimidines” (Delalande S.A., priority 1978, dated 1981).
